Numbered stars: 1 amine (or outer) side, 2 acyl side, 3 side chain; on linkers, the order of the positions; unused ones are H or OH. Square brackets hold non-standard residues; d marks the D form. Peptide text beside a SMILES is read from it. γGlu = O=C(O)[C@H](CCC(=O)[*:2])N[*:1]
Experiments:
PSMA = PSMA (Homo sapiens, UniProt Q04609); experiment: Hydrolysis of methotrexate analog substrates by purified PSMA (HPLC); type: biochemical; conditions: for % PSMA hydrolysis 24 h / % PSMA hydrolysis 48 h: Table 3, hydrolysis of substrate to APA-Asp or APA-Glu by purified PSMA
Method: The extent to which various peptide substrates are hydrolyzed by PSMA was determined by synthesizing a series of methotrexate analogs including the 4-N[N-2,4-diamino-6-pteridinyl-methyl)-N-methylamino-benzoate] (APA) portion of methotrexate coupled to a variety of peptides. Poly-glutamated methotrexate is available from Schirks Laboratories in Jona, Switzerland.
A series of α-linked peptides were investigated for PSMA hydrolysis. […] In Tables 1-3, to simplify identification of the type of amino acid linkages employed, α-linkages are denoted by a hyphen (for example, Glu-Glu) and all side-chain linkages are denoted by a star (for example, Glu*Glu).
Substrate specificity for the pteroyl poly-γ-glutamyl carboxypeptidase (folate hydrolase) activity of PSMA was determined by synthesizing a series of γ-linked methotrexate analogs and assaying them for hydrolysis by PSMA.
(§1) In Tables 1-3, to simplify identification of the type of amino acid linkages employed, α-linkages are denoted by a hyphen (for example, Glu-Glu) and all side-chain linkages are denoted by a star (for example, Glu*Glu). The column labeled “% PSMA Hydrolysis” refers to the percentage of hydrolysis of a substrate to APA-Asp or to APS-Glu by purified PSMA. The column labeled “% APA-Asp or -Glu” refers to the percentage of hydrolysis of substrate to APA-Asp or APA-Glu. The column labeled “% Prodrug Remaining” refers to the area of the HPLC peak attributable to starting material divided by the areas of HPLC peaks attributable to starting material, intermediate products, and final products. […] “ND” means “not determined,” in that the experiment was not performed.

[1] = Stability of PSMA substrates in mouse plasma, 18 hour incubation, HPLC; type: in vitro ADME; conditions: for % APA-Glu or -Asp: 18 hour incubation in mouse plasma
Text: (§2) In order that the prodrugs can be administered systemically via the blood, their stability in sera must be sufficiently high to avoid hydrolysis or other degradative processes which may occur prior to the prodrugs reaching their target tissues. In addition to GGH activity, a human blood plasma glutamate carboxypeptidase (PGCP) that has significant sequence homology to PSMA and glutamate carboxypeptidase activity has been identified. Therefore, to assay hydrolysis by GGH and other serum carboxypeptidases like PGCP, the APA-Glu*Glu*Glu*Glu*Asp, APA-Glu*Glu*Glu*Glu*Gln, and APA-Glu*Glu*Glu*Glu*Glu substrates were incubated in human and mouse plasma and hydrolysis determined by HPLC analysis after an 18-hour incubation, as shown in Table 3. As noted, GGH efficiently hydrolyzes poly-γ-glutamate chains as well as poly-γ-glutamated folate and methotrexate. GGH, however, is unable to hydrolyze α-linked peptides.
as §1

[2] = Stability of PSMA substrates in human plasma, 18 hour incubation, HPLC; type: in vitro ADME; conditions: for remaining at 18 h / % APA-Glu or -Asp: 18 hour incubation in human plasma; for remaining at 18 h: HPLC peak area of starting material over all peaks, read-out: % Prodrug Remaining; for % APA-Glu or -Asp: hydrolysis of substrate to APA-Asp or APA-Glu; for stability in serum (in words): species not stated
Text: as §2, §1

TSU cancer cells = experiment: Loss of clonogenic survival of TSU cancer cells after exposure to methotrexate analogs; type: cell-based; conditions: 48 hours of exposure
Text: A number of methotrexate analogs were studied for their effect on clonogenic survival of TSU cancer cells. One such analog is L-aspartic acid, N-[4-[[(2,4-diamino-5-ethyl-6-quiazolinyl)methyl]amino]benzoyl]-sesquihydrate, also known as NSC 184692, available from the NCI Developmental Therapeutics Branch. Another compound is L-aspartic acid, N-[2-chloro-5-[[(2,4-diamino-5-methyl-6-quiazolinyl)methyl]amino]benzoyl]-dihydrate, also known as NSC 132483. Another compound is L-aspartic acid, N-[2-chloro-4-[[(2,4-diamino-6-pteridinyl)methyl]amino]benzoyl]-monohydrate, also known as NSC 134033.
The loss of clonogenic survival following treatment of TSU cancer cells with NSC 184692 and 132483 has been investigated after 48 hours of exposure, and the results are listed in Table 4.

[3] = Cytotoxic activity of thapsigargin and its debutanoyl derivative; type: cell-based; conditions: cell line not stated
Method: The starting material for all the synthesized analogs is 8-O-debutanoylthapsigargin, which is easily available by triethylamine catalyzed methanolysis of thapsigargin. Removal of the butanoyl results in loss of cytotoxic activity with an LD50 of >50 μM compared to <100 nM for thapsigargin. Anhydrides of dicarboxylic acids of various lengths afforded analogs in which the acyl group attached to the O-8 ended in a free carboxylic acid. A dicyclohexylcarbodiimide (DCCI) promoted coupling of a 2,4-diaminoarene to the carboxylic acid analogs affords the derivatives in which contain a primary aromatic amine as a potential coupling point for additional moeities.

prostate cancer cells = experiment: Induction of apoptotic death of prostate cancer cells; type: cell-based; conditions: cell-proliferation independent
Method: The TG analog was synthesized by coupling the primary amine of 12ADT to the γ-carboxyl of glutamate, leaving the α-carboxyl of glutamate free to link to other amino acids, as shown in FIG. 2. The 12-ADT*Glu is a potent, cell-proliferation independent inducer of the apoptotic death of prostate cancer cells (LD50 is approximately 50 nM). The corresponding analog consisting of 12-ADT linked to the α-carboxyl of glutamate (that is, 12ADT-Glu) is also a suitable analog, as shown in FIG. 2. The prodrug containing 12ADT*Glu coupled to the longer amino acid chain (that is, 12ADT*Glu-Glu*Glu*Asp-Glu) can also be a suitable substrate. The 12ADT-Glu*Glu*Glu*Asp-Glu prodrug may also be cleaved by PSMA, which may cleave the last peptide bond in the absence of a free α-carboxyl. […] This analog can then be linked via either the α- or γ-carboxyl to a peptide chain.

Chain of PSMA (Q04609 whole entry): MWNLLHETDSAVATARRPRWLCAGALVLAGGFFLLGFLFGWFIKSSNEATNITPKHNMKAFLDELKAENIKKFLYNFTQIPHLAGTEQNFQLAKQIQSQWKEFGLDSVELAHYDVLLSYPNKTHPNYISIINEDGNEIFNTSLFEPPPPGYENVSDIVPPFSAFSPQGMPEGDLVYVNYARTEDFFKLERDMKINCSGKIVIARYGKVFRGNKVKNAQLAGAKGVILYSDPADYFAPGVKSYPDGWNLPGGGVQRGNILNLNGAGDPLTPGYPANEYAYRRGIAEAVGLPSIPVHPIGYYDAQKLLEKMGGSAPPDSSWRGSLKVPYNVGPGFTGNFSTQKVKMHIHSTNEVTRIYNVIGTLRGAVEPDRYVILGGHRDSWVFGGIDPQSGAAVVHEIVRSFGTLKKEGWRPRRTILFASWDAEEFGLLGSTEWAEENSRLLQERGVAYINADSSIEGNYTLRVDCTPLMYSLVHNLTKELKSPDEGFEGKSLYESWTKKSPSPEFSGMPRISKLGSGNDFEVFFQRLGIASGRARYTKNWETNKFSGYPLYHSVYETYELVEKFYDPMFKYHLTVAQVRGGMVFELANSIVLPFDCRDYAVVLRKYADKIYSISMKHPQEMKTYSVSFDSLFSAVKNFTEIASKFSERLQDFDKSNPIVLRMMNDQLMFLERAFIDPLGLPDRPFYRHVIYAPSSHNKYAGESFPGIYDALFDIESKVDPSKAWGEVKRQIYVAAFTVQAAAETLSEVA

Compound: CN(Cc1cnc2nc(N)nc(N)c2n1)c1ccc(C(=O)N[C@@H](CCC(=O)N[C@@H](CCC(=O)N[C@@H](CCC(=O)N[C@@H](CCC(=O)N[C@@H](CCC(N)=O)C(=O)O)C(=O)O)C(=O)O)C(=O)O)C(=O)O)cc1 [APA-Glu*Glu*Glu*Glu*Gln]
- % PSMA hydrolysis 24 h (PSMA): 97%
- % PSMA hydrolysis 48 h (PSMA): 100%
- hydrolysis by PSMA (in words) (PSMA; text summary of the tables): to a greater extent after 24 hours than any of the γ-linked dipeptide analogs
- % APA-Glu or -Asp [1]: 62%
- remaining at 18 h [2]: 26%
- % APA-Glu or -Asp [2]: 6%

Compound: Cc1c(CNc2ccc(Cl)c(C(=O)N[C@@H](CC(=O)O)C(=O)O)c2)ccc2nc(N)nc(N)c12.O.O [NSC 132483, L-aspartic acid, N-[2-chloro-5-[[(2,4-diamino-5-methyl-6-quiazolinyl)methyl]amino]benzoyl]-dihydrate]
- Loss of clonogenic survival (TSU cancer cells; 0.01 μmolar): 0%
- Loss of clonogenic survival (TSU cancer cells; 0.05 μmolar): 0%
- Loss of clonogenic survival (TSU cancer cells; 0.1 μmolar): 14%
- Loss of clonogenic survival (TSU cancer cells; 0.5 μmolar): 39%
- Loss of clonogenic survival (TSU cancer cells; 1 μmolar): 50%
- Loss of clonogenic survival (TSU cancer cells; 5 μmolar): 78%

Compound: NC(=O)CC[C@H](NC(=O)[C@H](CC(=O)O)NC(=O)CC[C@H](NC(=O)CC[C@H](NC(=O)CC[C@H](N)C(=O)O)C(=O)O)C(=O)O)C(=O)O [Glu*Glu*Glu*Asp-Gln] ({γGlu-γGlu-γGlu}-Asp-Gln-OH; C-terminus assumed)
- stability in serum (in words) [2]: high stability in serum

Compound: CN(Cc1cnc2nc(N)nc(N)c2n1)c1ccc(C(=O)N[C@@H](CC(=O)O)C(=O)N[C@@H](CCC(=O)O)C(=O)O)cc1 [APA-Asp-Glu]
- remaining at 18 h [2]: 99%
- % APA-Glu or -Asp [2]: 1%
- hydrolysis in human serum (in words) ([2]; 18 hour incubation in human serum, HPLC): no significant hydrolysis

Compound: CCc1c(CNc2ccc(C(=O)N[C@@H](CC(=O)O)C(=O)O)cc2)ccc2nc(N)nc(N)c12.CCc1c(CNc2ccc(C(=O)N[C@@H](CC(=O)O)C(=O)O)cc2)ccc2nc(N)nc(N)c12.O.O.O [NSC 184692, L-aspartic acid, N-[4-[[(2,4-diamino-5-ethyl-6-quiazolinyl)methyl]amino]benzoyl]-sesquihydrate]
- Loss of clonogenic survival (TSU cancer cells; 0.01 μmolar): 17%
- Loss of clonogenic survival (TSU cancer cells; 0.05 μmolar): 44%
- Loss of clonogenic survival (TSU cancer cells; 0.1 μmolar): 57%
- Loss of clonogenic survival (TSU cancer cells; 0.5 μmolar): 82%
- Loss of clonogenic survival (TSU cancer cells; 1 μmolar): 88%
- Loss of clonogenic survival (TSU cancer cells; 5 μmolar): 93%

Compound: N[C@@H](CC(=O)O)C(=O)N[C@@H](CCC(=O)N[C@@H](CCC(=O)N[C@@H](CC(=O)O)C(=O)N[C@@H](CCC(=O)O)C(=O)O)C(=O)O)C(=O)O [Asp-Glu*Glu*Asp-Glu] (H-D[γGlu][γGlu]DE-OH; C-terminus assumed)
- stability to hydrolysis in mouse plasma (in words) ([1]; mouse plasma): completely stable to hydrolysis
- stability to hydrolysis in human plasma (in words) ([2]; human plasma): completely stable to hydrolysis

Compound: C/C=C(/C)C(=O)O[C@H]1C(C)=C2[C@H]([C@@H]1OC(=O)CCCCCCC)[C@@](C)(OC(C)=O)C[C@H](O)[C@@]1(O)[C@H]2OC(=O)[C@@]1(C)O [8-O-debutanoylthapsigargin]
- LD50 (cytotoxic activity) [3]: > 50 µM

Compound: CN(Cc1cnc2nc(N)nc(N)c2n1)c1ccc(C(=O)N[C@@H](CC(=O)O)C(=O)N[C@@H](CCC(=O)N[C@@H](CCC(=O)N[C@@H](CC(=O)O)C(=O)N[C@@H](CCC(=O)O)C(=O)O)C(=O)O)C(=O)O)cc1 [APA-Asp-Glu*Glu*Asp-Glu]
- % APA-Glu or -Asp [1]: 2%
- remaining at 18 h [2]: 100%
- % APA-Glu or -Asp [2]: 0%

Compound: N-L-γ-glutamyl-12-aminododecanoyl-8-0-debutanoyl Thapsigargin [12-ADT*Glu]
- LD50 (apoptotic death of prostate cancer cells) (prostate cancer cells): approximately 50 nM

Compound: C/C=C(/C)C(=O)O[C@H]1C(C)=C2[C@H]([C@@H]1OC(=O)CCCCCCC)[C@@](C)(OC(C)=O)C[C@H](OC(=O)CCC)[C@@]1(O)[C@H]2OC(=O)[C@@]1(C)O [thapsigargin]
- LD50 (cytotoxic activity) [3]: < 0.1 µM

Compound: CN(Cc1cnc2nc(N)nc(N)c2n1)c1ccc(C(=O)N[C@@H](CCC(=O)N[C@@H](CCC(=O)N[C@@H](CCC(=O)N[C@@H](CCC(=O)N[C@@H](CCC(=O)O)C(=O)O)C(=O)O)C(=O)O)C(=O)O)C(=O)O)cc1 [APA-Glu*Glu*Glu*Glu*Glu, reference compound]
- % PSMA hydrolysis 24 h (PSMA): 96%
- % PSMA hydrolysis 48 h (PSMA): 100%
- % APA-Glu or -Asp [1]: 68%
- remaining at 18 h [2]: 11%
- % APA-Glu or -Asp [2]: 11%

Compound: CN(Cc1cnc2nc(N)nc(N)c2n1)c1ccc(C(=O)N[C@@H](CCC(=O)N[C@@H](CCC(=O)N[C@@H](CCC(=O)N[C@@H](CC(=O)O)C(=O)N[C@@H](CCC(=O)O)C(=O)O)C(=O)O)C(=O)O)C(=O)O)cc1 [APA-Glu*Glu*Glu*Asp-Glu]
- % APA-Glu or -Asp [1]: 5%
- remaining at 18 h [2]: 57%
- % APA-Glu or -Asp [2]: 23%

Compound: N[C@@H](CCC(=O)N[C@@H](CCC(=O)N[C@@H](CCC(=O)N[C@@H](CC(=O)O)C(=O)N[C@@H](CCC(=O)O)C(=O)O)C(=O)O)C(=O)O)C(=O)O [Glu*Glu*Glu*Asp-Glu] ({γGlu-γGlu-γGlu}-Asp-Glu-OH; C-terminus assumed)
- stability in serum (in words) [2]: high stability in serum

Compound: O=C(O)c1cc[c]([Hg+])cc1.[OH-] [p-hydroxymercuribenzoate, reference compound]
- effect of added inhibitor on hydrolysis of the substrates in plasma ([1]; addition of the non-specific inhibitor of GGH and other cysteine proteases): complete inhibition of hydrolysis

Compound: CN(Cc1cnc2nc(N)nc(N)c2n1)c1ccc(C(=O)N[C@@H](CCC(=O)N[C@@H](CCC(=O)N[C@@H](CCC(=O)N[C@@H](CC(=O)O)C(=O)N[C@@H](CCC(N)=O)C(=O)O)C(=O)O)C(=O)O)C(=O)O)cc1 [APA-Glu*Glu*Glu*Asp-Gln]
- remaining at 18 h [2]: 76%
- % APA-Glu or -Asp [2]: 13%
